{"source": "BindingDB's records for doi:10.1021/jm061242y", "about": "(Elan Pharmaceuticals, 2007)", "biological_target": "Beta-secretase 1 (Homo sapiens, UniProt P56817)", "sequence (P56817 whole entry)": "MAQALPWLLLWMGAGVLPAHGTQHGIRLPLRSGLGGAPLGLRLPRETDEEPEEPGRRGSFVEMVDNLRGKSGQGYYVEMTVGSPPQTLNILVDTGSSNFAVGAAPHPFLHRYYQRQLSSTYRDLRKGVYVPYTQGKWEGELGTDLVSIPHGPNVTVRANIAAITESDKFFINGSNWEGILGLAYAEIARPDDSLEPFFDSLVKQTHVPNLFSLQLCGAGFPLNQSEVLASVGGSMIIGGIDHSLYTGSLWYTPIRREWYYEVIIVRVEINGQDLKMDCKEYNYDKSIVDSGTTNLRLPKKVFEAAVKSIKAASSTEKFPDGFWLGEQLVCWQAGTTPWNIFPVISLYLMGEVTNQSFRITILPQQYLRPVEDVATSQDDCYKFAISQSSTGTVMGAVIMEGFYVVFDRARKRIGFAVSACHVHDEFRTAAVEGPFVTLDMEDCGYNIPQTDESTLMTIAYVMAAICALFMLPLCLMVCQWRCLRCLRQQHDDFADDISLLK", "experiment": "BACE Enzyme Inhibition Assay", "conditions": "pH 4.8; 37 °C", "procedure": "Beta-cleavage ELISA assays were carried out in reaction buffer containing enzyme, substrate MBP-C125, and test compounds. Generated beta-cleaved product was detected using biotinylated Sw192 or biotinyated Wt192 as specific reporter antibodies and quantitated against the appropriate MBP-C125 standard.", "data": [{"smiles": "CCCN(CCC)C(=O)c1cccc(C(=O)N[C@@H](Cc2cc(F)cc(F)c2)[C@@H](O)C[C@@H](C)C(=O)NCC(C)C)c1", "values": [{"measurement": "IC50", "result": 0.03, "unit": "µM"}]}, {"smiles": "CCCN(CCC)C(=O)c1cccc(C(=O)N[C@@H](Cc2cc(F)cc(F)c2)[C@@H](O)CN[C@@H](C)C(=O)NCC(C)C)c1", "note": "[N-[(1S,2S)-1-(3,5-difluorobenzyl)-2-hydroxy-3-({(1S)-1-methyl-2-[(2-methylpropyl)amino]-2-oxoethyl}amino)propyl]-N,N-dipropylbenzene-1,3-dicarboxamide]", "values": [{"measurement": "IC50", "result": 68, "unit": "µM"}]}]}
